Reference: ChEMBL document CHEMBL1123381, “Synthesis and antiviral evaluation of 1,4-dioxane nucleoside analogues related to nucleoside dialdehydes” (1986)
Active and inactive are the calls of the source. The rule behind the calls is not given here.

Columns and labels:
[1] = The compound was evaluated for cellular toxicity against [3H]thymidine incorporation into DNA of uninfected mouse L-cells; type: functional
[2] = tested on: Vaccinia virus; assay: The compound was tested for inhibitory activity against vaccinia virus replication; type: functional; conditions: Orthopoxvirus vaccinia; read-out: ID50 (the source's name)
[3] = tested on: Vaccinia virus; assay: The compound was tested for inhibitory activity against vaccinia virus replication; NA=Not active; type: functional, organism-based; conditions: Orthopoxvirus vaccinia

Row | SMILES | [3H]thymidine incorporation, % of control [1] [%] | IC50 [2] [µM] | ID50 [3]
1 | C=C(CO)OC(=C)n1cnc2c(N)ncnc21 | 104 | 30 | –
2 | Nc1nc(O)c2ncn(C3COCC(CO)O3)c2n1 (stereo not drawn) | 99 | – | inactive
3 | Nc1ncnc2c1ncn2C1COCC(CO)O1 (stereo not drawn) | 95 | – | inactive
4 | Nc1ncnc2c1ncn2[C@@H](C=O)O[C@@H](C=O)CO | 8.3 | 0.3 | –
